The source of these data is US8633203B2, “Use of pterocarpans as active anti-cellulite ingredients” (Symrise AG, priority 2009, dated 2014).

For data set [1], the target named is T1, pancreatic lipase (PL) (Sus scrofa, UniProt P00591).
T1 construct: purchased Sigma-Aldrich
T1 sequence (P00591 1-450): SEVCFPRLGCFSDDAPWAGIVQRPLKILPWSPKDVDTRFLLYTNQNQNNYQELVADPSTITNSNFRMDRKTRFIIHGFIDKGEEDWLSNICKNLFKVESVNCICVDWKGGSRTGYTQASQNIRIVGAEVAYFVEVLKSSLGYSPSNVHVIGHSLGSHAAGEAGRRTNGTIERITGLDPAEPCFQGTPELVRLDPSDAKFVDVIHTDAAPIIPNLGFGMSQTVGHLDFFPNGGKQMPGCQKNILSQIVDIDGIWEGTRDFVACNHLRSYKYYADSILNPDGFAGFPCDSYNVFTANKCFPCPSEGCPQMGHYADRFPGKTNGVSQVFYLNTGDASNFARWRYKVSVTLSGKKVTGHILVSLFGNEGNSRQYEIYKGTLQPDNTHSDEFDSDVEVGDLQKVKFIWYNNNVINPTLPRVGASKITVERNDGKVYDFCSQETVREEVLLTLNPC
In words: inhibition of pancreatic lipase, MUF oleate hydrolysis. In kind it is biochemical. The following applies: MUF oleate substrate; mean values of at least 2 independent tests. From the text:
Lipogenesis is taken to mean the storing of triglycerides in adipocytes. The inhibition of this storage can take place by means of the inhibition of the activity of extracellular lipoprotein lipase (LPL) in that the hydrolysis of extracellular triglycerides and therefore the absorption of free fatty acids by adipocytes is reduced. As a preliminary test, the inhibition of pancreatic lipase (PL) is investigated.
PL (Sigma-Aldrich), in the presence of test substances in different use concentrations has methylumbelliferyl oleate (MUF oleate) added as a substrate. Fluorescent methylumelliferon (MUF), is produced by hydrolysis of the MUF oleate by PL and is quantified. The inhibition of the hydrolysis of the MUF oleate is a measure of the inhibition of activity of the PL.
The IC50 is calculated from the inhibition of the PL [%] in a series of dilutions of tested samples. This is the concentration, at which the activity of the PL is 50% inhibited.

Data set [2] deals with Primary human subcutaneous preadipocytes differentiated to adipocytes. In words: lipolysis assay, free glycerol in supernatant. Type of data set: cell-based. The following applies: for Activity with regard to lipolysis (neither inhibited nor stimulated): max. use concentration 25 ppm, about 20 hours incubation; for IC50 inhibition of the lipolysis: mean values of at least 2 independent tests. The method, then: Primary human subcutaneous preadipocytes (Lonza) are seeded in a 96-well microtiter plate at a concentration of 1×10^4 cells/well. Until confluence is reached, cultivation takes place at 37° C. and 5% CO2 in DMEM, enriched with 10% foetal calf serum. To induce the differentiation of preadipocytes to adipocytes there follows the addition DMEM enriched with 10% foetal calf serum, with added 10 μg/ml insulin, 1 μM dexamethasone and 1 mM IBMX (3-isobutyl-1-methylxanthine). A cultivation for 14 to 20 days follows. During this time, the medium can optionally be replaced by DMEM, enriched with 10% foetal calf serum.
Various concentrations of the test substances are applied to the cells in DMEM, with bovine serum albumen added. After about 20 hours of incubation, the quantification takes place of free glycerol in the supernatant of the cells, which is discharged therefrom after hydrolysis of triglycerides in the cells and is a measure of the lipolysis of the cells. The quantification of the free glycerol is carried out based on an enzymatic method with a free glycerol reagent.
The stimulation of the lipolysis in the presence of test substances is calculated according to the following equation: […]
The […] is calculated from the lipolysis stimulation [%] in a series of dilutions of tested samples. This is the concentration at which the lipolysis is 50% stimulated.
The inhibition of the lipolysis in the presence of test substances is calculated according to the following equation: […]
The IC50 is calculated from the lipolysis inhibition [%] in a series of dilutions of tested samples. This is the concentration at which the lipolysis is 50% inhibited.

Data set [3] concerns 3T3-L1-cells. As to the kind of experiment: adipogenesis inhibition assay (Nile Red lipid staining). The following applies: mean values of at least 2 independent tests. In kind it is cell-based, mouse. The method, then:
3T3-L1-cells (mouse embryonal fibroblast-like adipocyte cell line) are seeded in a 48-well plate with collagen I-coating in a concentration of 3×10^4 cells/well. After 72 h cultivation at 37° C. and 5% CO2 in DMEM (Dulbecco's Modified Eagle Medium), enriched with 10% calf serum, various concentrations of the test substances in DMEM, enriched with 10% foetal calf serum and to which are added 1 μg/ml insulin, 0.25 μM dexamethasone and 0.5 mM IBMX (3-isobutyl-1-methylxanthine), are added and incubated for a further 48 h. A media change takes place, in that DMEM, enriched with 10% foetal calf serum and with 1 μg/ml insulin added, are applied. After renewed cultivation for 48 h, a further media change takes place, in which DMEM, enriched with 10% foetal calf serum, is applied.
After a further incubation for 72 h, the intracellularly stored lipids are quantified as a measure for the differentiation of the cells by measuring the fluorescence after dyeing of the lipids with the fluorescent dye Nile Red.
The inhibition of the adipogenesis in the presence of the test substances is calculated according to the following equation: […]
The IC50 is calculated from the adipogenesis inhibition (%) in a series of dilutions of tested samples. This is the concentration at which the adipogenesis is 50% inhibited.

Data set [4] addresses T2, lipoprotein lipase (LPL) (Mus musculus, UniProt P11152).
T2 construct: endogenous in cells; host or cells: differentiated 3T3-L1 cells (mouse); heparin-released supernatant
T2 sequence (P11152 28-474): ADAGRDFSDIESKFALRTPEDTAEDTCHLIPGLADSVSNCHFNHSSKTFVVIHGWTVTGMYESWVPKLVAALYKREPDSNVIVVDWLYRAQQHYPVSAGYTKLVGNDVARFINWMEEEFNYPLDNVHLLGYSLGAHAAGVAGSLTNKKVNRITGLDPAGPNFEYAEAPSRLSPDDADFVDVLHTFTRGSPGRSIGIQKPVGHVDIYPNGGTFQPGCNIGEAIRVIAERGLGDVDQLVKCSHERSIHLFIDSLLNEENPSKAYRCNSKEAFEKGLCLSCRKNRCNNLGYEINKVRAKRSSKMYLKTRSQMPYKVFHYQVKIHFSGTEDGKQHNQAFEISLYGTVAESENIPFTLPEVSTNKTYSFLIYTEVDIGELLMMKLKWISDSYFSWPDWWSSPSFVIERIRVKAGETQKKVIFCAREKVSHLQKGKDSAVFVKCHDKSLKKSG
As to the kind of experiment: inhibition of lipoprotein lipase from differentiated 3T3-L1 cells, MUF oleate hydrolysis. Type of data set: biochemical. The following applies: LPL from 3T3-L1 cells; MUF oleate substrate; mean values of at least 2 independent tests. Here is the method: The results of the inhibition of the PL are used as a preliminary test and are confirmed on LPL. To obtain LPL, 3T3-L1 cells (mouse embryonal fibroblast adipocyte cell line) are seeded in a 6-well plate with collagen I-coating in a concentration of 3×10^5 cells/well. The cultivation and differentiation of the cells takes place analogously to the details in Example 2 (adipogenesis assay). During the differentiation LPL, is increasingly expressed. The LPL is present in a membrane-bound state and is released by one hour incubation with heparin solution at 2-8° C. in the supernatant of the cells.
The LPL thus obtained, in the presence of test substances in different use concentrations, has methylumbelliferyl oleate (MUF oleate) added as the substrate. Fluorescent methylumbelliferyl (MUF) is produced by hydrolysis of the MUF oleate by LPL and is quantified. The inhibition of the hydrolysis of the MUF oleate is a measure of the inhibition of the activity of the LPL and therefore the lipogenesis.
The IC50 is calculated from the inhibition of the LPL [%] in a series of dilutions of tested samples. This is the concentration at which the activity of the LPL and therefore the lipogenesis is 50% inhibited.

For data set [5], the system named is fat cells. As to the kind of experiment: own investigations on differentiation of fat cells. The following applies: depending on the use concentration. In kind it is cell-based.
The nature of data set [6]: phototoxic potential, photo-irritation factor according to OECD guideline 432. The following applies: own investigations.
From the text: The phototoxic potential is expressed as a photo-irritation factor (PIF). […] It applies here that with a PIF of less than 2, no phototoxic potential exists while a phototoxic potential exists at a PIF of more than 5. With a PIF of between 2 and 5, there is possibly a phototoxic potential.

As for `COc1ccc2c(c1)OC[C@H]1c3ccccc3O[C@@H]21` [3-methoxypterocarpan], in data set [1], the “IC50 inhibition of the PL” value is on record as 350 ppm. The “Activity with regard to lipolysis (neither inhibited nor stimulated)” value (“Activity … (neither inhibited nor stimulated)” below) in data set [2] is on record as “No activity (25 ppm)”. Further, the IC50 adipogenesis inhibition in data set [3] amounted to 50.9 ppm. Further, the “IC50 inhibition of the LPL” value in data set [4] is given as 67.0 ppm.

`COc1ccc(-c2coc3cc(O)ccc3c2=O)cc1` [Formononetin, reference compound]: in data set [2], the “IC50 inhibition of the lipolysis” value was found to be 53.7 ppm.

Take `Oc1ccc2c(c1)OC[C@H]1c3cc4c(cc3O[C@@H]21)OCO4` [Maackiain]: the “IC50 inhibition of the PL” value in data set [1] was determined as 147 ppm. Moreover, the “Activity … (neither inhibited nor stimulated)” value in data set [2] is “No activity (25 ppm)”. Further, the IC50 adipogenesis inhibition in data set [3] is reported as 25.5 ppm. In addition, the “IC50 inhibition of the LPL” value in data set [4] is given as 104.2 ppm.

Take `COc1ccc2c(c1)OC1c3ccc(O)cc3OCC21` (stereo not drawn) [Medicarpin]: the “IC50 inhibition of the PL” value in data set [1] came out at 425 ppm. Besides, the “Activity … (neither inhibited nor stimulated)” value in data set [2] was “No activity (25 ppm)”. The IC50 adipogenesis inhibition in data set [3] was 54.0 ppm. Besides, in data set [4], the “IC50 inhibition of the LPL” value is 788 ppm.

For the molecule `COc1cc(O)c2c(=O)c(-c3ccc(O)c(O)c3)coc2c1` [Santal, reference compound], the “IC50 inhibition of the lipolysis” value in data set [2] was 1.92 ppm. In addition, the “effect on lipolysis (route iii), in words” value in data set [2] (own investigations) is “inhibition of lipolysis”.

`O=c1c(-c2ccc(O)cc2)coc2cc(O)cc(O)c12` [genistein]: the “effect on differentiation of fat cells, in words” value in data set [5] is given as “inhibited or stimulated”.

Regarding `COc1ccc(-c2coc3cc(O)c(OC)cc3c2=O)cc1O` [odoratin], the “phototoxic potential, in words” value in data set [6] is recorded as “notable phototoxic potential”.

Consider cladastrin, for which, in data set [6], the “phototoxic potential, in words” value is listed as “notable phototoxic potential”.
